Assay results as given in publication PMC6474360 (Biochemistry, 2018).

Experiments:
Type in all cases: binding
[1] = biological target: sperm whale myoglobin (ferrous Mb^II), V68A/I107Y mutant (Physeter macrocephalus, UniProt P02185, D123N/I108Y/V69A); test: UV-vis titration
[2] = biological target: sperm whale myoglobin (ferric Mb^III), H64A mutant (Physeter macrocephalus, UniProt P02185, D123N/H65A); test: X-ray crystal structure
[3] = biological target: sperm whale myoglobin (ferric Mb^III), wild-type (Physeter macrocephalus, UniProt P02185, D123N); test: UV-vis titration
Sequence of sperm whale myoglobin (ferric Mb^III), wild-type (P02185 whole entry D123N): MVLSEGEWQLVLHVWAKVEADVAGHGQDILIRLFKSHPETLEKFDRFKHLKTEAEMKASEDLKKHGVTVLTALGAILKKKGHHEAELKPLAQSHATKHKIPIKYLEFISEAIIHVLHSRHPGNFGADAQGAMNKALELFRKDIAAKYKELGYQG

[4] = biological target: sperm whale myoglobin (ferrous Mb^II), H64Q mutant (Physeter macrocephalus, UniProt P02185, D123N/H65Q); test: UV-vis titration
Sequence of sperm whale myoglobin (ferrous Mb^II), H64Q mutant (P02185 whole entry H65Q/D123N): as the sequence (P02185 whole entry D123N) above, with H65Q counted along it

Sequence of sperm whale myoglobin (ferric Mb^III), H64A mutant (P02185 whole entry H65A/D123N): as the sequence (P02185 whole entry D123N) above, with H65A counted along it
Sequence of sperm whale myoglobin (ferrous Mb^II), V68A/I107Y mutant (P02185 whole entry V69A/I108Y/D123N): as the sequence (P02185 whole entry D123N) above, with V69A, I108Y counted along it

## O=NO [nitrite]
[1]
  Kd: 19.4 ± 0.6 mM
[2]
  Kd: > 20 mM
[3]
  Kd: 12.2 ± 2.2 mM
[4]
  Kd: 1.45 ± 0.3 mM
